In US8735620B2, “Processes for preparing (E)-styrylbenzylsulfone compounds and uses thereof for treating proliferative disorders” (priority 2008, dated 2014):

test system: H157 (human lung tumor cell line); experiment: Cytotoxicity assay (trypan blue exclusion, 96 h), H157; format: cell-based; details: H157, 96 h treatment; read-out: H157 IC50

| SMILES | IC50 |
| --- | --- |
| COc1ccc(CS(=O)(=O)/C=C/c2c(C)cccc2C)cc1 [6l, (E)-2,6-Dimethylstyryl-4-Methoxybenzyl sulfone] | > 20 µM |
| COc1ccc(CS(=O)(=O)/C=C/c2ccccc2OC)cc1 [6f, (E)-2-Methoxystyryl-4-Methoxybenzyl sulfone] | 5 µM |
| COc1cc(OC)c(/C=C/S(=O)(=O)Cc2cc(OC)c(OC)c(OC)c2)c(OC)c1 [6ac, (E)-2,4,6-trimethoxystyryl-3,4,5-Trimethoxybenzyl sulfone] | > 20 µM |
| COc1ccc(CS(=O)(=O)/C=C/c2ccc(OC)cc2OC)cc1 [6n, (E)-2,4-Dimethoxystyryl-4-Methoxybenzyl sulfone] | > 20 µM |
| COc1ccc(CS(=O)(=O)/C=C/c2ccc(OC)c(OC)c2OC)cc1 [6r, (E)-2,3,4-Trimethoxystyryl-4-Methoxybenzyl sulfone] | > 20 µM |
| COc1ccc(CS(=O)(=O)/C=C/c2c(OC)cc(F)cc2OC)cc1 [6v, (E)-2,6-Dimethoxy-4-fluorostyryl-4-Methoxybenzyl sulfone] | 0.5 µM |
| COc1ccc(CS(=O)(=O)/C=C/c2ccc(N)cc2)cc1 [6e, (E)-4-Aminostyryl-4-Methoxybenzyl sulfone] | > 20 µM |
| COc1ccc(CS(=O)(=O)/C=C/c2c(OC)cccc2OC)cc1 [6m, (E)-2,6-Dimethoxystyryl-4-Methoxybenzyl sulfone] | 0.7 µM |
| COc1ccc(CS(=O)(=O)/C=C/c2c(OC)cc(O)cc2OC)cc1O [6z, (E)-2,6-Dimethoxy-4-hydroxystyryl-3-Hydroxy-4-Methoxybenzyl Sulfone] | 0.5 µM |

test system: DU145 (human prostate tumor cell line); experiment: Cytotoxicity assay (trypan blue exclusion, 96 h), DU145; format: cell-based; details: DU145, 96 h treatment; read-out: DU145 IC50
Description: (§1) Tissue Culture and Reagents: Paclitaxel was purchased from Sigma. Cell lines were purchased from ATCC. Cell lines were routinely grown in DMEM or RPM1 (CellGro) supplemented with 10% fetal bovine serum (Atlas) and 1 unit/mL penicillin-streptomycin (Gibco).

| SMILES | IC50 |
| --- | --- |
| COc1cc(OC)c(/C=C/S(=O)(=O)Cc2ccc(Cl)cc2)c(OC)c1 [6ae, (E)-2,4,6-trimethoxystyryl-4-chlorobenzyl sulfone] | 7.5 µM |
| COc1cc(OC)c(/C=C/S(=O)(=O)Cc2ccc(OC)c(OC)c2OC)c(OC)c1 [6ad, (E)-2,4,6-Trimethoxystyryl-2,3,4-Trimethoxybenzyl sulfone] | 12.5 µM |
| COc1ccc(CS(=O)(=O)/C=C/c2ccc(F)c(OC)c2)cc1 [6i, (E)-4-Fluoro-3-methoxystyryl-4-Methoxybenzylsulfone] | 10 µM |
| COc1cc(OC)c(/C=C/S(=O)(=O)Cc2ccc(O)cc2)c(OC)c1 [6ai, (E)-2,4,6-trimethoxystyryl-4-Hydroxybenzyl sulfone] | 7.5 µM |
| COc1ccc(CS(=O)(=O)/C=C/c2ccc(C)cc2C)cc1 [6h, (E)-2,4-Dimethylstyryl-4-Methoxybenzyl sulfone] | 12 µM |
| COc1cc(OC)c(/C=C/S(=O)(=O)Cc2ccc(C#N)cc2)c(OC)c1 [6ag, (E)-2,4,6-trimethoxystyryl-4-Cyanobenzyl sulfone] | 7.5 µM |
| COc1ccc(CS(=O)(=O)/C=C/c2c(C)cccc2C)cc1 [6l, (E)-2,6-Dimethylstyryl-4-Methoxybenzyl sulfone] | > 20 µM |
| COc1ccc(CS(=O)(=O)/C=C/c2ccccc2OC)cc1 [6f, (E)-2-Methoxystyryl-4-Methoxybenzyl sulfone] | 3.5 µM |
| COc1cc(OC)c(/C=C/S(=O)(=O)Cc2cc(OC)c(OC)c(OC)c2)c(OC)c1 [6ac, (E)-2,4,6-trimethoxystyryl-3,4,5-Trimethoxybenzyl sulfone] | > 20 µM |
| COc1ccc(CS(=O)(=O)/C=C/c2ccc(OC)cc2OC)cc1 [6n, (E)-2,4-Dimethoxystyryl-4-Methoxybenzyl sulfone] | > 20 µM |
| COc1ccc(CS(=O)(=O)/C=C/c2ccc(OC)c(OC)c2OC)cc1 [6r, (E)-2,3,4-Trimethoxystyryl-4-Methoxybenzyl sulfone] | > 20 µM |
| COc1ccc(CS(=O)(=O)/C=C/c2c(OC)cc(F)cc2OC)cc1 [6v, (E)-2,6-Dimethoxy-4-fluorostyryl-4-Methoxybenzyl sulfone] | 0.5 µM |
| COc1ccc(CS(=O)(=O)/C=C/c2ccc(N)cc2)cc1 [6e, (E)-4-Aminostyryl-4-Methoxybenzyl sulfone] | > 20 µM |
| COc1ccc(CS(=O)(=O)/C=C/c2c(OC)cccc2OC)cc1 [6m, (E)-2,6-Dimethoxystyryl-4-Methoxybenzyl sulfone] | 0.25 µM |
| COc1ccc(CS(=O)(=O)/C=C/c2c(OC)cc(O)cc2OC)cc1O [6z, (E)-2,6-Dimethoxy-4-hydroxystyryl-3-Hydroxy-4-Methoxybenzyl Sulfone] | 0.5 µM |

test system: BT20 (human breast tumor cell line); experiment: Cytotoxicity assay (trypan blue exclusion, 96 h), BT20; format: cell-based; details: BT20, 96 h treatment

| SMILES | IC50 |
| --- | --- |
| COc1cc(OC)c(/C=C/S(=O)(=O)Cc2ccc(Cl)cc2)c(OC)c1 [6ae, (E)-2,4,6-trimethoxystyryl-4-chlorobenzyl sulfone] | 10 µM |
| COc1cc(OC)c(/C=C/S(=O)(=O)Cc2ccc(C#N)cc2)c(OC)c1 [6ag, (E)-2,4,6-trimethoxystyryl-4-Cyanobenzyl sulfone] | 12.5 µM |
| COc1ccc(CS(=O)(=O)/C=C/c2c(C)cccc2C)cc1 [6l, (E)-2,6-Dimethylstyryl-4-Methoxybenzyl sulfone] | > 20 µM |
| COc1ccc(CS(=O)(=O)/C=C/c2ccccc2OC)cc1 [6f, (E)-2-Methoxystyryl-4-Methoxybenzyl sulfone] | 5 µM |
| COc1cc(OC)c(/C=C/S(=O)(=O)Cc2cc(OC)c(OC)c(OC)c2)c(OC)c1 [6ac, (E)-2,4,6-trimethoxystyryl-3,4,5-Trimethoxybenzyl sulfone] | > 20 µM |
| COc1ccc(CS(=O)(=O)/C=C/c2ccc(OC)cc2OC)cc1 [6n, (E)-2,4-Dimethoxystyryl-4-Methoxybenzyl sulfone] | > 20 µM |
| COc1ccc(CS(=O)(=O)/C=C/c2ccc(OC)c(OC)c2OC)cc1 [6r, (E)-2,3,4-Trimethoxystyryl-4-Methoxybenzyl sulfone] | > 20 µM |
| COc1ccc(CS(=O)(=O)/C=C/c2c(OC)cc(F)cc2OC)cc1 [6v, (E)-2,6-Dimethoxy-4-fluorostyryl-4-Methoxybenzyl sulfone] | 0.75 µM |
| COc1ccc(CS(=O)(=O)/C=C/c2ccc(N)cc2)cc1 [6e, (E)-4-Aminostyryl-4-Methoxybenzyl sulfone] | > 20 µM |
| COc1ccc(CS(=O)(=O)/C=C/c2c(OC)cccc2OC)cc1 [6m, (E)-2,6-Dimethoxystyryl-4-Methoxybenzyl sulfone] | 0.4 µM |
| COc1ccc(CS(=O)(=O)/C=C/c2c(OC)cc(O)cc2OC)cc1O [6z, (E)-2,6-Dimethoxy-4-hydroxystyryl-3-Hydroxy-4-Methoxybenzyl Sulfone] | 0.25 µM |

test system: DLD1 (human colorectal tumor cell line); experiment: Cytotoxicity assay (trypan blue exclusion, 96 h), DLD1; format: cell-based; details: DLD1, 96 h treatment; read-out: DLD1 IC50
Description: as §1

| SMILES | IC50 |
| --- | --- |
| COc1ccc(CS(=O)(=O)/C=C/c2c(C)cccc2C)cc1 [6l, (E)-2,6-Dimethylstyryl-4-Methoxybenzyl sulfone] | > 20 µM |
| COc1ccc(CS(=O)(=O)/C=C/c2ccccc2OC)cc1 [6f, (E)-2-Methoxystyryl-4-Methoxybenzyl sulfone] | 7.5 µM |
| COc1cc(OC)c(/C=C/S(=O)(=O)Cc2cc(OC)c(OC)c(OC)c2)c(OC)c1 [6ac, (E)-2,4,6-trimethoxystyryl-3,4,5-Trimethoxybenzyl sulfone] | > 20 µM |
| COc1ccc(CS(=O)(=O)/C=C/c2ccc(OC)cc2OC)cc1 [6n, (E)-2,4-Dimethoxystyryl-4-Methoxybenzyl sulfone] | > 20 µM |
| COc1ccc(CS(=O)(=O)/C=C/c2ccc(OC)c(OC)c2OC)cc1 [6r, (E)-2,3,4-Trimethoxystyryl-4-Methoxybenzyl sulfone] | > 20 µM |
| COc1ccc(CS(=O)(=O)/C=C/c2c(OC)cc(F)cc2OC)cc1 [6v, (E)-2,6-Dimethoxy-4-fluorostyryl-4-Methoxybenzyl sulfone] | 0.75 µM |
| COc1ccc(CS(=O)(=O)/C=C/c2ccc(N)cc2)cc1 [6e, (E)-4-Aminostyryl-4-Methoxybenzyl sulfone] | > 20 µM |
| COc1ccc(CS(=O)(=O)/C=C/c2c(OC)cccc2OC)cc1 [6m, (E)-2,6-Dimethoxystyryl-4-Methoxybenzyl sulfone] | 0.7 µM |
| COc1ccc(CS(=O)(=O)/C=C/c2c(OC)cc(O)cc2OC)cc1O [6z, (E)-2,6-Dimethoxy-4-hydroxystyryl-3-Hydroxy-4-Methoxybenzyl Sulfone] | 0.5 µM |

test system: BT20, DU145, H157 and DLD1 cell lines; experiment: In vitro cytotoxicity, four human tumor cell lines (SAR discussion); format: cell-based; details: not given
Method: A number of tumor cell lines were tested using a dose response end point assay system. The cells were grown in either DMEM or RPMI supplemented with 10% fetal bovine serum and 1 unit/mL Penicillin-Streptomycin solution. The tumor cells were plated into 6 well dishes at a cell density of 1.0×10^5 cells/mL/well and compounds were added 24 h later at various concentrations. Cell counts were determined from duplicate wells after 96 h of treatment. The total number of viable cells was determined by trypan blue exclusion.
Following the synthesis of this group of compounds, their in vitro cytotoxicity was assessed using four different human tumor cell lines derived from human breast (BT20), prostate (DU145), lung (H157) and colorectal (DLD1) cancers. […] In a majority of the compounds described here, a methoxy group was kept constant at the 4th position on the aromatic ring of the benzyl moiety.

| SMILES | cytotoxic activity, SAR statement |
| --- | --- |
| COc1cc(OC)c(/C=C/S(=O)(=O)Cc2ccc(Cl)cc2)c(OC)c1 [6ae, (E)-2,4,6-trimethoxystyryl-4-chlorobenzyl sulfone] | substantially lost activity |
| COc1ccc(CS(=O)(=O)/C=C/c2ccc(C)cc2C)cc1 [6h, (E)-2,4-Dimethylstyryl-4-Methoxybenzyl sulfone] | low level of cytotoxicity |
| COc1cc(OC)c(/C=C/S(=O)(=O)Cc2ccc(C#N)cc2)c(OC)c1 [6ag, (E)-2,4,6-trimethoxystyryl-4-Cyanobenzyl sulfone] | substantially lost activity |
| COc1ccc(CS(=O)(=O)/C=C/c2c(C)cccc2C)cc1 [6l, (E)-2,6-Dimethylstyryl-4-Methoxybenzyl sulfone] | low level of cytotoxicity |
| COc1ccc(CS(=O)(=O)/C=C/c2c(OC)cc(F)cc2OC)cc1 [6v, (E)-2,6-Dimethoxy-4-fluorostyryl-4-Methoxybenzyl sulfone] | either a reduced level or total loss of activity |
| COc1ccc(CS(=O)(=O)/C=C/c2ccc(N)cc2)cc1 [6e, (E)-4-Aminostyryl-4-Methoxybenzyl sulfone] | gradually decreased the activity |

same assay, conditions: at the highest concentration (20 μM) tested

| SMILES | activity in cell-killing assays |
| --- | --- |
| COc1ccc(CS(=O)(=O)/C=C/c2ccc(OC)c(OC)c2OC)cc1 [6r, (E)-2,3,4-Trimethoxystyryl-4-Methoxybenzyl sulfone] | totally inactive |

same assay, conditions: cytotoxicity assays

| SMILES | fold enhancement of activity compared to other disubstituted methoxy sulfones (6j, 6n, 6o and 6p) |
| --- | --- |
| COc1ccc(CS(=O)(=O)/C=C/c2c(OC)cccc2OC)cc1 [6m, (E)-2,6-Dimethoxystyryl-4-Methoxybenzyl sulfone] | greater than 40 fold |

same assay, conditions: four human tumor cell lines

| SMILES | cytotoxic activity, SAR statement |
| --- | --- |
| COc1cc(OC)c(/C=C/S(=O)(=O)Cc2ccc([N+](=O)[O-])cc2)c(OC)c1 [6af, (E)-2,4,6-trimethoxystyryl-4-Nitrobenzyl sulfone] | substantially lost activity |
| COc1ccc(CS(=O)(=O)/C=C/c2ccc(F)c(OC)c2)cc1 [6i, (E)-4-Fluoro-3-methoxystyryl-4-Methoxybenzylsulfone] | loss of activity |
| COc1cc(OC)c(/C=C/S(=O)(=O)Cc2ccc(O)cc2)c(OC)c1 [6ai, (E)-2,4,6-trimethoxystyryl-4-Hydroxybenzyl sulfone] | substantially lost activity |
| COc1ccc(CS(=O)(=O)/C=C/c2ccccc2OC)cc1 [6f, (E)-2-Methoxystyryl-4-Methoxybenzyl sulfone] | partially recovered the lost activity |
